In brackets after ≈: the same amount, converted by molar mass. Entries after “also recorded” stand apart in the source; their conditions may differ. Read-outs that look alike come from different tables or passages of the source.
Key:
S-180 solid cancer = assay: Antitumor activity, S-180 solid cancer; type: in vivo; settings: mouse tumor
[1] = test system: DNA of transplantable cancer cells; assay: Mechanism of action: reaction with DNA of transplantable cancer cells
[2] = test system: synthesis of ribosomal RNA and messenger RNA; assay: Mechanism of action: synthesis of ribosomal RNA and messenger RNA; settings: transplantable cancer cells
[3] = test system: Shigella dysenteriae Shiga; assay: microbe, parasite or virus in culture; type: cell-based
Mycobacterium sp. 607 = assay: Antimicrobial spectrum (MIC); type: cell-based; settings: 3% glycerol nutrient agar (acid-fast bacteria), 37° C., 24 or 48 hours
Bacillus subtilis PCI219 = assay: Antimicrobial spectrum (MIC); type: cell-based; settings: 1% glucose nutrient agar, 37° C., 24 or 48 hours
Staphylococcus albus = assay: Antimicrobial spectrum (MIC); type: cell-based; settings: 1% glucose nutrient agar, 37° C., 24 or 48 hours
tumor = settings: Japanese Patent Lay Open No. 44098/1979; cited from earlier work
Staphylococcus citreus = assay: Antimicrobial spectrum (MIC); type: cell-based; settings: 1% glucose nutrient agar, 37° C., 24 or 48 hours
Salina lutea = assay: Antimicrobial spectrum (MIC); type: cell-based
[4] = test system: Staphylococcus aureus Smith; assay: Antimicrobial spectrum (MIC); type: cell-based; settings: 1% glucose nutrient agar, 37° C., 24 or 48 hours
Ehrlich's ascites tumor = assay: Antitumor activity, Ehrlich's ascites tumor; type: in vivo; settings: mouse tumor
[5] = test system: RNA synthesis (Escherichia coli RNA polymerase, calf thymus DNA); assay: RNA synthesis in in vitro reaction mixture; type: biochemical
Mycobacterium phlei = assay: Antimicrobial spectrum (MIC); type: cell-based; settings: 3% glycerol nutrient agar (acid-fast bacteria), 37° C., 24 or 48 hours
melanoma B16 = assay: Antitumor activity, melanoma B16; type: in vivo; settings: mouse tumor
Streptococcus faecalis = assay: Antimicrobial spectrum (MIC); type: cell-based; settings: 1% glucose nutrient agar, 37° C., 24 or 48 hours
[6] = Biological activity compared between saframycins
Pseudomonas aeruginosa = assay: Antimicrobial spectrum (MIC); type: cell-based; settings: 1% glucose nutrient agar, 37° C., 24 or 48 hours
various microorganisms = assay: Growth inhibition of various microorganisms; type: cell-based; settings: at low concentrations
[7] = test system: Streptococcus pyogenes Cook; assay: Antimicrobial spectrum (MIC); type: cell-based; settings: blood agar, 37° C., 24 or 48 hours
gastric cancer of man = assay: Growth inhibition of gastric cancer of man heterotransplanted to the nude mouse; type: in vivo
leukemia P388 = assay: Antitumor activity, leukemia P388; type: in vivo; settings: mouse tumor
Brucella abortus = assay: microbe, parasite or virus in culture; type: cell-based
Mycobacterium avium = assay: Antimicrobial spectrum (MIC); type: cell-based; settings: 3% glycerol nutrient agar (acid-fast bacteria), 37° C., 24 or 48 hours
Klebsiella pneumoniae = assay: Antimicrobial spectrum (MIC); type: cell-based; settings: 1% glucose nutrient agar, 37° C., 24 or 48 hours
Nocardia asteroides = assay: Antimicrobial spectrum (MIC); type: cell-based; settings: 37° C., 24 or 48 hours
leukemia L1210 = assay: Antitumor activity, leukemia L1210; type: in vivo; settings: mouse tumor
bacillus cereus = assay: Antimicrobial spectrum (MIC); type: cell-based; settings: 1% glucose nutrient agar, 37° C., 24 or 48 hours
Corynebacterium xerosis = assay: Antimicrobial spectrum (MIC); type: cell-based; settings: 1% glucose nutrient agar, 37° C., 24 or 48 hours
[8] = test system: Corynebacterium dephtheriae; assay: Antimicrobial spectrum (MIC); type: cell-based
[9] = test system: Streptococcus pyogenes 090R; assay: Antimicrobial spectrum (MIC); type: cell-based; settings: blood agar, 37° C., 24 or 48 hours
Escherichia coli = assay: Antimicrobial spectrum (MIC); type: cell-based; settings: 1% glucose nutrient agar, 37° C., 24 or 48 hours
male DDY strain mice = assay: Acute toxicity LD50 in male DDY strain mice; type: in vivo, mouse; settings: male DDY mice 18-20 g
Serratia marcescens = assay: Antimicrobial spectrum (MIC); type: cell-based; settings: 1% glucose nutrient agar, 37° C., 24 or 48 hours
[10] = test system: Staphylococcus salivarius; assay: Antimicrobial spectrum (MIC); type: cell-based; settings: 1% glucose nutrient agar, 37° C., 24 or 48 hours
[11] = test system: gram-positive bacteria and some acidfast bacteria or gram-negative bacteria; assay: Antibacterial activity, summary of spectrum; type: cell-based
transplantable tumors = assay: Activity against transplantable tumors; settings: in vivo
Rhodotorula glutinis = assay: Antimicrobial spectrum (MIC); type: cell-based; settings: Sabouraud dextrose agar, 27° C., 48 hours
Text: (§1) Medium and culture condition:

Saccharomyces cerevisiae = assay: Antimicrobial spectrum (MIC); type: cell-based; settings: Sabouraud dextrose agar, 27° C., 48 hours
Text: as §1

[12] = test system: Trichophyton mentagrophytes; assay: Antimicrobial spectrum (MIC); type: cell-based; settings: Sabouraud dextrose agar, 27° C., 48 hours
Text: as §1

Mucor mucedo = assay: Antimicrobial spectrum (MIC); type: cell-based; settings: Sabouraud dextrose agar, 27° C., 48 hours
Text: as §1

Pencillium glaucum = assay: Antimicrobial spectrum (MIC); type: cell-based; settings: Sabouraud dextrose agar, 27° C., 48 hours
Text: as §1

Aspergillus oryzae = assay: Antimicrobial spectrum (MIC); type: cell-based; settings: Sabouraud dextrose agar, 27° C., 48 hours
Text: as §1

[13] = test system: Staphylococcus aureus 209P; assay: Antimicrobial spectrum (MIC); type: cell-based; settings: 1% glucose nutrient agar, 37° C., 24 or 48 hours
Aspergillus niger = assay: Antimicrobial spectrum (MIC); settings: Sabouraud dextrose agar, 27° C., 48 hours
Candida albicans 7N = assay: Antimicrobial spectrum (MIC); settings: Sabouraud dextrose agar, 27° C., 48 hours
Salmonella typhimurium = assay: Antimicrobial spectrum (MIC); type: cell-based; settings: 1% glucose nutrient agar, 37° C., 24 or 48 hours
[14] = test system: mouse lymphoid leukemia P388; assay: Effects on mouse lymphoid leukemia P388 in BDF1 mice; type: in vivo; settings: for survival period of treated group over survival period of control group: i.p., 1×10^6 cells i.p., BDF1 mice; for increase of survival period: treatment 1-10 diseased days, 1×10^6 cells
Text: The effects of saframycin S on mouse lymphoid leukemia P388 were studied with BDF1 mice.

[15] = 1% glucose nutrient agar, 37° C., 24 or 48 hours

Structure (SMILES): COC1=C(C)C(=O)C2=C(C1=O)C1C3CC4=C(C(=O)C(OC)=C(C)C4=O)C(CNC(=O)C(C)=O)N3C(C#N)C(C2)N1C (centres unmarked) [Saframycin A, reference compound]
- effect on S-180 solid cancer (S-180 solid cancer): effective
- reaction with DNA, inhibition of template activity [1]: specifically reacted with DNA of transplantable cancer cells to inhibit their template activity
- synthesis of ribosomal RNA and messenger RNA [2]: prevented synthesis of ribosomal RNA and messenger RNA
- MIC ([3]; Shigella dysenteriae): 1.56 µg/mL (≈ 2.77 µM)
- MIC (Mycobacterium sp. 607; Mycobacterium, SP.607, read-out: MIC): 1.56 µg/mL (≈ 2.77 µM)
- MIC (Bacillus subtilis PCI219; Bacillus subtilis, PCI219, read-out: MIC): 0.025 µg/mL (≈ 0.0444 µM)
- MIC (Staphylococcus albus; Staphylococcus, read-out: MIC): 0.006 µg/mL (≈ 0.0107 µM)
- antitumor effect (tumor): strong antitumor effect
- MIC (Staphylococcus citreus; Staphylococcus, read-out: MIC): 0.006 µg/mL (≈ 0.0107 µM)
- MIC (Salina lutea): 0.006 µg/mL (≈ 0.0107 µM)
- MIC ([4]; Staphylococcus aureus, read-out: MIC): 0.025 µg/mL (≈ 0.0444 µM)
- effect on Ehrlich's ascites tumor (Ehrlich's ascites tumor): effective
- inhibition of RNA synthesis in vitro ([5]; Escherichia coli RNA polymerase, calf thymus DNA, RNA precursor, no reducing agent): did not inhibit RNA synthesis
- inhibition of RNA synthesis in vitro ([5]; with dithiothreitol (DTT) and other reducing agent): RNA synthesis inhibition equivalent to in vivo effect was observed
- MIC (Mycobacterium phlei; Mycolicibacterium phlei, read-out: MIC): 1.56 µg/mL (≈ 2.77 µM)
- effect on melanoma B16 (melanoma B16): effective
- MIC (Streptococcus faecalis; Enterococcus faecalis, read-out: MIC): 1.56 µg/mL (≈ 2.77 µM)
- biological activity among saframycins A-E ([6]; among saframycins A-E): highest biological activity
- MIC (Pseudomonas aeruginosa; Pseudomonas aeruginosa, read-out: MIC): 100 µg/mL (≈ 178 µM)
- inhibition of growth of various microorganisms (various microorganisms): effective in inhibiting the growth of various microorganisms at low concentrations
- MIC ([7]; Streptococcus pyogenes, read-out: MIC): 1.56 µg/mL (≈ 2.77 µM)
- inhibition of growth of gastric cancer of man (gastric cancer of man): effective in inhibiting the growth of gastric cancer of man
- effect on leukemia P388 (leukemia P388): effective
- MIC (Brucella abortus; Brucella abortus): 1.56 µg/mL (≈ 2.77 µM)
- MIC (Mycobacterium avium; Mycobacterium avium, read-out: MIC): 100 µg/mL (≈ 178 µM)
- MIC (Klebsiella pneumoniae; Klebsiella pneumoniae, read-out: MIC): 1.56 µg/mL (≈ 2.77 µM)
- MIC (Nocardia asteroides; Nocardia asteroides, read-out: MIC): 50 µg/mL (≈ 88.9 µM)
- effect on leukemia L1210 (leukemia L1210): effective
- MIC (bacillus cereus; Bacillus cereus, read-out: MIC): 0.4 µg/mL (≈ 0.711 µM)
- MIC (Corynebacterium xerosis; Corynebacterium xerosis, read-out: MIC): 0.012 µg/mL (≈ 0.0213 µM)
- MIC ([8]; Corynebacterium): 0.001 µg/mL (≈ 0.00178 µM)
- MIC ([9]; Streptococcus pyogenes, 090R, read-out: MIC): 3 µg/mL (≈ 5.33 µM)

Structure (SMILES): COC1=C(C)C(=O)C2=C(C1=O)[C@@H]1[C@@H]3CC4=C(C(=O)C(OC)=C(C)C4=O)[C@H](CNC(=O)C(C)=O)N3[C@@H](O)[C@H](C2)N1C [Saframycin S]
- MIC [3, 15]: 1.56 µg/mL (≈ 2.82 µM)
- MIC (Escherichia coli): 25.0 µg/mL (≈ 45.2 µM)
- LD50 (male DDY strain mice; intraperitoneal injection): 2.5 mg/kg
- LD50 (male DDY strain mice; intravenous injection): 0.83 mg/kg
- MIC (Mycobacterium sp. 607): 1.56 µg/mL (≈ 2.82 µM)
- MIC (Bacillus subtilis PCI219): 0.025 µg/mL (≈ 0.0452 µM)
- MIC (Staphylococcus albus): 0.001 µg/mL (≈ 0.00181 µM)
- MIC (Serratia marcescens): 50.0 µg/mL (≈ 90.3 µM)
- MIC [10]: 25.0 µg/mL (≈ 45.2 µM)
- MIC (Staphylococcus citreus): 0.001 µg/mL (≈ 0.00181 µM)
- MIC (Salina lutea; [15]): 0.006 µg/mL (≈ 0.0108 µM)
- MIC [4]: 0.001 µg/mL (≈ 0.00181 µM)
- MIC (Mycobacterium phlei): 0.8 µg/mL (≈ 1.45 µM)
- antibacterial activity [11]: antibacterial activities mainly against gram-positive bacteria; also recorded: antibacterial activity mainly against gram-positive bacteria and some acidfast bacteria or gram-negative bacteria such as Mycobacterium, Shigella dysenteriae Shiga and Brucella
- activity against transplantable tumors (transplantable tumors): activity against transplantable tumors
- MIC (Rhodotorula glutinis): 100 µg/mL (≈ 181 µM)
- MIC (Saccharomyces cerevisiae): 50 µg/mL (≈ 90.3 µM)
- MIC [12]: 50 µg/mL (≈ 90.3 µM)
- MIC (Mucor mucedo): 100 µg/mL (≈ 181 µM)
- MIC (Pencillium glaucum): 100 µg/mL (≈ 181 µM)
- MIC (Aspergillus oryzae): 100 µg/mL (≈ 181 µM)
- MIC [13]: 0.01 µg/mL (≈ 0.0181 µM)
- MIC (Streptococcus faecalis): 1.56 µg/mL (≈ 2.82 µM)
- biological activities relative to saframycin A ([6]; compared with saframycin A): still more powerful biological activities in every point than saframycin A; also recorded: almost equal to that of saframycin A
- MIC (Aspergillus niger): > 100 µg/mL
- MIC (Pseudomonas aeruginosa): 100 µg/mL (≈ 181 µM)
- MIC [7]: 0.05 µg/mL (≈ 0.0903 µM)
- MIC (Candida albicans 7N): > 100 µg/mL
- MIC (Brucella abortus; blood agar, 37° C., 24 or 48 hours): 0.8 µg/mL (≈ 1.45 µM)
- MIC (Mycobacterium avium): 50.0 µg/mL (≈ 90.3 µM)
- MIC (Klebsiella pneumoniae): 1.56 µg/mL (≈ 2.82 µM)
- MIC (Nocardia asteroides): 6.25 µg/mL (≈ 11.3 µM)
- MIC (Salmonella typhimurium): 100 µg/mL (≈ 181 µM)
- MIC (bacillus cereus): 0.4 µg/mL (≈ 0.723 µM)
- MIC (Corynebacterium xerosis): 0.001 µg/mL (≈ 0.00181 µM)
- MIC [8, 15]: 0.001 µg/mL (≈ 0.00181 µM)
- survival period of treated group over survival period of control group ([14]; 0.5 mg/kg daily for 10 days): 146.2%
- increase of survival period ([14]; 0.5 mg/kg/day): 46.2%
- survival period of treated group over survival period of control group ([14]; 0.75 mg/kg daily for 10 days): 157.7%
- increase of survival period ([14]; 0.75 mg/kg/day): 57.7%
- survival period of treated group over survival period of control group ([14]; 1.0 mg/kg daily for 10 days): 161.5%
- increase of survival period ([14]; 1.0 mg/kg/day): 61.5%
- survival period of treated group over survival period of control group ([14]; 1.5 mg/kg daily for 10 days): 182.7%
- increase of survival period ([14]; 1.5 mg/kg/day): 82.7%
- MIC [9]: 0.05 µg/mL (≈ 0.0903 µM)

Source: patent US4372947A, “Antibiotic saframycin S and process for producing the same” (Arai; Tadashi, priority 1980, dated 1983)
